Data on nine compounds can be found in patent US12637434B2, “Salt of arylaminoquinazoline-containing compound, and preparation method therefor and use thereof” (priority 2020, dated 2026).

The nature of series [1]: Solubility test in water and pH 2.0 buffer (HPLC). The class given is physicochemical. The following applies: for solubility in pH 2.0 buffer compared with Preparation Example 1 (in words): acidic conditions; for solubility: 25 °C, thermodynamic from solid; for Solubility (25° C., mg/mL) Medium: Water / Solubility (25° C., mg/mL) Medium: pH 2.0 buffer / solubility: 25° C. How it is done:
2. Solubility (Water and pH 2.0 Buffer)
Detection Instrument: Agilent 1260 High Performance Liquid Chromatograph
Detection medium: purified water, pH 2.0 phosphoric acid-disodium hydrogen phosphate buffer
Preparation of control solution: it was taken that an appropriate amount of the referen ce substance of the compound of Formula 1, accurately weighed, dissolved completely by solven t and diluted to 100 μg/mL. 10 μL of the prepared solution was accurately measured and the conte nts of Compound 1 were determined by HPLC.
The salts obtained in Preparation Example 1, Examples 1 to 4 and 9 and Comparative Examples 1 to 2 were tested for solubility in water and pH 2.0 buffer.

Series [2] can be described thus: Long-term stability test. It is filed as physicochemical. The following applies: for Purity (5 months) / Appearance / Crystalline form: 40 ± 2° C., 75% ± 5% RH, 5 months; for Appearance / Crystalline form: sealed with polyethylene film; for Purity (0 month): start of long-term stability test. The procedure:
An appropriate amount of the salt samples obtained in Examples 1 to 4 and 9 were sealed with a polyethylene film and placed for 5 months under the conditions of 40±2° C. and 75%±5% RH, and a long-term test was carried out.

A short description of series [3]: Solid stability test. It is filed as physicochemical. As to conditions: 40° C./75% RH (open), 7 days. How it is done:
The dihydrochloride salt of Example 1 and the dihydrochloride salt tetrahydrate of Example 2 and Example 10 were all placed under the condition of 40° C./75% RH (open) for 7 days to perform the stability test.

The nature of series [4]: Solubility test in biological vehicles (FaSSIF, FeSSIF, SGF). It is filed as physicochemical. How it is done: 9. Determination of Solubility in Biological Vehicles
The preparation procedures of the biological vehicles (SGF, FeSSIF and FaSSIF) used for solubility determination were shown in the following table:
Test method: a sample to be tested was added to a biological vehicles and prepared into a solution or suspension having a target concentration of 10 mg/mL. The resulting solution or suspension was shaken continuously at 200 rpm at 37° C. The suspension was filtered at 0.5 hour and the concentration of the compound in the filtrate was determined by using HPLC.
Solubility Test in Biological Vehicles
The samples of Example 1 and Example 10 (20 mg each) were weighed, and different biological vehicles (2 mL) were added threreto to perform the solubility test, and the results were shown in Table 11.

Series [5] in a line: Solubility test in conventional organic solvents. The class given is physicochemical. The procedure: Solubility Test in Conventional Organic Solvents
The solubility test of the sample of Preparation Example 1 in different organic solvents was carried out by using the method in the Pharmacopoeia (Volume II, the general examples), and the solubility of the sample of Example 1 in different organic solvents was estimated using the gravimetric method, and the results were shown in Table 15.

Series [6] relates to human melanoma A375. Kind of series: Pharmacodynamic experiment of human melanoma A375 nude mice xenograft tumor model. The class given is in vivo, nu/nu female nude mice. The following applies: once a day, 20 days; for Tumor weight / Inhibition rate %: Day 21; for Inhibition rate %: tumor weight. The procedure: Pharmacodynamic Experiment of Human Melanoma A375 Nude Mice Xenograft Tumor Model
A well-growing human melanoma A375 cell suspension was inoculated into the subcutaneous tissue of the forelimb axilla of nu/nu female nude mice in an inoculation volume of 0.1 mL containing approximately 1×10^7 tumor cells. When the tumor volume grew to 100 mm^3 or more, the mice with good tumor growth were selected, and the animals were evenly divided into 5 groups according to the tumor volume: a Vehicle group, a Vandetanib 12.5 mg/kg group, a Vandetanib 25 mg/kg group, an Example 1 sample 12.5 mg/kg group, and an Example 1 sample 25 mg/kg group, and there were 6 animals in each group. The Vehicle group was orally administered with distilled water, and the remaining groups were orally administered with the corresponding tested drugs in a dosing volume of 20 mL/kg, once a day, and continuously administered for 20 days. The animals were housed normally after administration, and the anti-tumor effect of the tested drugs was dynamically observed by using the method of measuring the diameter of the tumors. At the end of the experiment (Day 21), the animals were sacrificed, and the tumors, were stripped and weighed, and the tumor inhibition rate was calculated.
On the technique in general: In xenograft studies the graft and the host belong to different species.

Setting [7] is: pH 2.0 phosphoric acid-disodium hydrogen phosphate buffer.
The mark [8] stands for this setting: purified water, water, purified water, read-out: Solubility (25° C., mg/mL) Medium: Water.
The mark [9] stands for this setting: 0.5 h, 37° C., 200 rpm, target concentration 10 mg/mL, unit not given.

Converted amounts (≈) assume the structure as drawn.

Turning to `COc1cc2c(Nc3ccc(Br)cc3F)ncnc2cc1OCCCCN(C)C` [Comparative Example 1], the “Solubility (25° C., mg/mL) Medium: Water” value in series [1] (purified water) was “Jelly-like, solubility”; in series [1] (purified water, listed as monohydrochloride salt), “jelly-like”.

Regarding `COc1cc2c(Nc3ccc(Br)cc3F)ncnc2cc1OCCCCN(C)C` [Comparative Example 2], the “Solubility (25° C., mg/mL) Medium: Water” value was “Jelly-like, solubility” in series [1] (purified water) and “jelly-like” in series [1] (purified water, listed as malate salt).

In the case of `COc1cc2c(Nc3ccc(Br)cc3F)ncnc2cc1OCCCCN(C)C` [Example 2], in series [2], the “Purity (5 months)” value was 98.56%, the Appearance entry is given as “White powder”, the Crystalline form result was “Unchanged” and the “Purity (0 month)” value is given as 98.55%. Besides, the “Solubility (25° C., mg/mL) Medium: pH 2.0 buffer” value in series [1] (setting [7]) came out at 7.69 mg/mL. Besides, in series [1] (purified water), the “Solubility (25° C., mg/mL) Medium: Water” value worked out at 34.32 mg/mL (≈ 74.1 mM). In addition, the “solubility in pH 2.0 buffer compared with Preparation Example 1 (in words)” value in series [1] is given as “slightly lower”. For the same compound, in series [3], the Crystalline form result is given as “Unchanged” and the Purity is given as 98.54%.

Take `COc1cc2c(Nc3ccc(Br)cc3F)ncnc2cc1OCCCCN(C)C` [Example 3]: in series [2], the “Purity (5 months)” value was 98.84%, the Appearance entry was “White powder”, the Crystalline form entry is recorded as “Unchanged” and the “Purity (0 month)” value is 98.83%. The “Solubility (25° C., mg/mL) Medium: pH 2.0 buffer” value in series [1] (setting [7]) worked out at 5.00 mg/mL. Also, the “Solubility (25° C., mg/mL) Medium: Water” value in series [1] (purified water) amounted to 10.91 mg/mL (≈ 23.5 mM). Moreover, the “solubility in pH 2.0 buffer compared with Preparation Example 1 (in words)” value in series [1] is listed as “slightly lower”.

For the compound `COc1cc2c(Nc3ccc(Br)cc3F)ncnc2cc1OCCCCN(C)C.O=C(O)/C=C\C(=O)O` [Example 4], in series [2], the “Purity (5 months)” value was 96.41%, the Appearance entry was “White powder”, the Crystalline form entry is listed as “Unchanged” and the “Purity (0 month)” value is given as 96.72%. Also, the “solubility in pH 2.0 buffer compared with Preparation Example 1 (in words)” value in series [1] is reported as “slightly better”. For the same compound, the solubility in series [1] (pH 2.0 phosphoric acid-disodium hydrogen phosphate buffer, pH 2, aqueous buffer, pH 2.0 phosphoric acid-disodium hydrogen phosphate buffer, read-out: Solubility (25° C., mg/mL) Medium: pH 2.0 buffer) worked out at 12.5 mg/mL. The solubility in series [1] (setting [8]) was found to be 13.7 mg/mL.

As for `COc1cc2c(Nc3ccc(Br)cc3F)ncnc2cc1OCCCCN(C)C.O=C(O)C(=O)O` [Example 9], in series [2], the “Purity (5 months)” value worked out at 99.34%, the Appearance entry is listed as “White powder”, the Crystalline form entry was “Unchanged” and the “Purity (0 month)” value worked out at 99.38%. For the same compound, in series [1] (setting [8]), the solubility came out at 2.89 mg/mL.

In series [4] (0.5 h, 37° C., 200 rpm, target concentration 10 mg/mL, unit inferred), `COc1cc2c(Nc3ccc(Br)cc3F)ncnc2cc1OCCCCN(C)C` [Example 10] yielded a Solubility in FeSSIF (pH 5.0) of 7.3 mg/mL. Moreover, in series [4] (setting [9]), the “Solubility in FaSSIF (pH 6.5)” value is given as “solution, >10” and the “Solubility in SGF (pH 1.2)” value was “solution, >10”. In addition, the “solubility in biological vehicles with different pH (in words)” value in series [4] (FaSSIF, FeSSIF, SGF) is on record as “good solubility”. Also, in series [3], the Crystalline form result is “Unchanged” and the Purity worked out at 99.74%.

`COc1cc2c(Nc3ccc(Br)cc3F)ncnc2cc1OCCCCN(C)C` [Preparation Example 1, 4-(4-bromo-2-fluoroanilino)-6-methoxy-7-[(4-N,N-dimethylamino)butoxy]quinazoline]: the “Solubility (mg/mL) in Acetone” value in series [5] (Acetone, Preparation Example 1 by Pharmacopoeia method, Example 1 estimated by gravimetric method) is given as 44.04 mg/mL (≈ 95 mM). In series [5] (Acetonitrile, Preparation Example 1 by Pharmacopoeia method, Example 1 estimated by gravimetric method), the “Solubility (mg/mL) in Acetonitrile” value is reported as 10.66 mg/mL (≈ 23 mM). Besides, in series [5] (Dichloromethane, Preparation Example 1 by Pharmacopoeia method, Example 1 estimated by gravimetric method), the “Solubility (mg/mL) in Dichloromethane” value was 30.49 mg/mL (≈ 65.8 mM). Further, the “Solubility (mg/mL) in Ethanol” value in series [5] (Ethanol, Preparation Example 1 by Pharmacopoeia method, Example 1 estimated by gravimetric method) is given as 205.2 mg/mL (≈ 443 mM). Further, the “Solubility (mg/mL) in Ethyl acetate” value in series [5] (Ethyl acetate, Preparation Example 1 by Pharmacopoeia method, Example 1 estimated by gravimetric method) is recorded as 30.38 mg/mL (≈ 65.6 mM). In addition, the “Solubility (mg/mL) in Isopropanol” value in series [5] (Isopropanol, Preparation Example 1 by Pharmacopoeia method, Example 1 estimated by gravimetric method) was 51.05 mg/mL (≈ 110 mM). In addition, the “Solubility (mg/mL) in Methanol” value in series [5] (Methanol, Preparation Example 1 by Pharmacopoeia method, Example 1 estimated by gravimetric method) was greater than 60 mg/mL. The “Solubility (mg/mL) in Tetrahydrofuran” value in series [5] (Tetrahydrofuran, Preparation Example 1 by Pharmacopoeia method, Example 1 estimated by gravimetric method) is given as 201.4 mg/mL (≈ 435 mM). The solubility in series [5] (organic solvent or mixture, thermodynamic from solid, read-out: solubility in various conventional organic solvents (all)) was greater than 10 mg/mL. Moreover, the “Solubility (25° C., mg/mL) Medium: Water” value in series [1] (purified water) is 0.036 mg/mL (≈ 0.0777 mM). In addition, the “water-solubility (in words)” value in series [1] (water) is “very poor water-solubility”.

For the compound `COc1cc2c(Nc3ccc(Br)cc3F)ncnc2cc1OCC1CCN(C)CC1` [Vandetanib, reference compound], in series [6] (12.5 mg/kg oral), the “Animal number (Survival/total)” value is listed as 6/6, the “Tumor weight” value is given as 2.89 ± 0.67 g and the Inhibition rate % is reported as 15.18%. In series [6] (25 mg/kg oral), the “Animal number (Survival/total)” value is given as 6/6, the “Tumor weight” value is 1.90 ± 0.93 g and the Inhibition rate % worked out at 44.15%.
